Results as given in patent publication US12435087B2, “Modulators of DCN-1 and methods of use thereof” (Cellarity, Inc., priority 2023, dated 2025).
pIC50: −log10 of the molar value. Like-named read-outs stand apart in the source and are kept apart here.

Target: DCN1 (DCUND1) protein PONY domain (Homo sapiens (Human), UniProt Q96GG9)
Experiment: TR-FRET assay (binding to DCN-1, displacement of FAM-labeled probe)
Settings: for IC50: TR FRET IC50 1 hr (nM)
From the text: (§1) The TR-FRET assay was designed following the Scott et al. protocol (Scott et al., Nat Chem Biol. 2017 August; 13(8): 850-857. doi:10.1038/nchembio.2386). The recombinant form of the DCN1 (DCUND1) protein PONY domain was produced using an E. coli expression system at Viva Biotech (China). The DCN1 protein was biotinylated (EZ sulfo-NHS-LC-biotin; Thermofisher) for labeling with streptavidin terbium (Tb) cryptate in the reaction. The probe was changed to a non-covalent DCN1 inhibitor labeled with carboxyfluorescein (FAM; Zhou et al., Nat Commun. 2017; 8: 1150. doi: 10.1038/s41467-017-01243-7). Buffer conditions were modified to enhance protein stability by exchanging Tween20 for TritonX and increasing NaCl to 200 mM. The compounds were screened against 5 nM DCN1 and 20 nM FAM-probe or 0.31 nM DCN1 and 900 nM total probe (100 nM FAM-labeled plus 800 nM unlabeled). The TR-FRET ratio between Tb-DCN1 and the FAM-labeled probe was measured in a 384-well opti-plate (Perkin Elmer) using a plate reader (BMG) at 1, 5, and 24 hrs after treatment with compound (final DMSO concentration of 0.1%). The ratio was normalized to the high (DCN1 and FAM-probe) and low (DCN1 and no probe) controls for a readout of % activity (=100*(x−low)/(high−low).
A TR-FRET assay was performed to evaluate the ability of the compounds to bind the DCN-1 protein.
as §1, with “850-857. Doi: 10.1038/nchembio.2386).” for “850-857. doi:10.1038/nchembio.2386).”, “the DCNI” for “the DCN1”, “1150. Doi:” for “1150. doi:”, “0.1%).” for “0.1%). The ratio was normalized to the high (DCN1 and FAM-probe) and low (DCN1 and no probe) controls for a readout of % activity (=100*(x−low)/(high−low).”

[1] = 24 hr after treatment with compound, read-out: TR FRET IC50 24 hr
[2] = 1 hr after treatment with compound
[3] = read-out: TR FRET IC50 1 hr, 1 hr after treatment with compound

Sequence of DCN1 (DCUND1) protein PONY domain (Q96GG9 60-248): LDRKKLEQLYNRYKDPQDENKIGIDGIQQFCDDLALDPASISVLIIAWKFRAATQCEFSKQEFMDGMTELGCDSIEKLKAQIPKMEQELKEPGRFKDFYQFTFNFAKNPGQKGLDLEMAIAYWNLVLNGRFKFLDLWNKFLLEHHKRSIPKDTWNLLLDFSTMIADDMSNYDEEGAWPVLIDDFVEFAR

Row | SMILES | pIC50 [1] | IC50 [2] | pIC50 [3]
1 | C=CC(=O)N(C)c1ccccc1[C@H]1c2cnn(-c3ccccc3)c2N(CC)C(=O)[C@@H]1NC(=O)c1cccc(C(F)(F)F)c1 (racemic) [Compound I-97, ˜{N}—[˜{rac}-(4˜{S},5˜{R})-7-ethyl-4-[2-[methyl(prop-2-enoyl)amino]phenyl]-6-oxo-1-phenyl-4,5-dihydropyrazolo[3,4-b]pyridin-5-yl]-3-(trifluoromethyl)benzamide] | 5.52 to 6.00 | 1000 to 3000 nM | –
2 | C=C(CN(C)C1COC1)C(=O)NCc1cccc([C@H]2c3c(C)nn(-c4ccccc4)c3N(CC)C(=O)[C@@H]2NC(=O)c2cccc(C(F)(F)F)c2)c1 [Compound I-349] | 6.00 to 6.70 | 1000 to 3000 nM | –
3 | C=C(CN1CCN(C2COC2)CC1)C(=O)NCc1cccc([C@@H]2c3c(C)nn(-c4ccccc4)c3N(CC)C(=O)[C@H]2NC(=O)c2cccc(C(F)(F)F)c2)c1 (stereo in doubt) [Compound I-252] | ≥ 6.70 | 1000 to 3000 nM | –
4 | CCN1C(=O)[C@H](NC(=O)c2cccc(C(F)(F)F)c2)[C@@H](c2cccc(CNC(=O)C3=C(C(=O)OC)CCC3)c2)c2cnn(-c3ccccc3)c21 [Compound I-119] | 5.52 to 6.00 | 1000 to 3000 nM | –
5 | CCN1C(=O)[C@@H](NC(=O)c2cccc(C(F)(F)F)c2)[C@H](c2cc(F)cc(NC(=O)/C=C/CN(C)C)c2)c2cnn(-c3ccccc3)c21 [Compound I-151] | ≥ 6.70 | 1000 to 3000 nM | –
6 | Cc1nn(-c2ccccc2)c2c1[C@H](c1cccc(NC(=O)C3=CCC3)c1)[C@@H](NC(=O)c1cccc(C(F)(F)F)c1)C(=O)N2CCO (racemic) [Compound I-92, rac-N-((4R,5S)-4-(3-(cyclobut-1-ene-1-carboxamido)phenyl)-7-(2-hydroxyethyl)-3-methyl-6-oxo-1-phenyl-4,5,6,7-tetrahydro-1H-pyrazolo[3,4-b]pyridin-5-yl)-3-(trifluoromethyl)benzamide] | 5.52 to 6.00 | 1000 to 3000 nM | –
7 | C=C(C(=O)NCc1cccc([C@@H]2c3cnn(-c4ccccc4)c3N(CC)C(=O)[C@H]2NC(=O)c2ccn(C(F)(F)F)n2)c1)C(C)N1CCC12COC2 (stereo partly shown) [Compound I-344] | ≥ 6.70 | 200 to 1000 nM | –
8 | CCN1C(=O)[C@@H](NC(=O)c2cccc(C(F)(F)F)c2)[C@H](c2cccc(CNC(=O)C3=CCC3)c2)c2cnn(-c3ccccc3)c21 (racemic) [Compound I-126] | 5.52 to 6.00 | 1000 to 3000 nM | –
9 | CCN1C(=O)[C@@H](NC(=O)c2cccc(C(F)(F)F)c2)[C@@H](c2cncc(NC(=O)/C=C/CN(C)C)c2)c2cnn(-c3ccccc3)c21 [Compound I-329] | 5.52 to 6.00 | 1000 to 3000 nM | –
10 | C=C(CO)C(=O)NCc1cccc([C@@H]2c3cnn(-c4ccccc4)c3N(CC)C(=O)[C@H]2NC(=O)c2cccc(C(F)(F)F)c2)c1 [Compound I-76] | 5.52 to 6.00 | 1000 to 3000 nM | –
11 | CCN1C(=O)[C@@H](NC(=O)c2cccc(C(F)(F)F)c2)[C@H](c2cccc(NC(=O)/C(C)=C/C(=O)OC)c2)c2c(C)nn(-c3ccccc3)c21 (racemic) [Compound I-145] | 6.00 to 6.70 | 1000 to 3000 nM | –
12 | CCN1C(=O)[C@@H](NC(=O)c2cccc(C(F)(F)F)c2)[C@H](c2cccc(CNC(=O)C3=CCCN(C)C3)c2)c2cnn(-c3ccccc3)c21 [Compound I-33] | 5.52 to 6.00 | 1000 to 3000 nM | –
13 | CCN1C(=O)[C@@H](NC(=O)c2cccc(C(F)(F)F)c2)[C@H](c2cccc(CNC(=O)C3=C(C(=O)OC)CCC3)c2)c2cnn(-c3ccccc3)c21 [Compound I-108] | 5.52 to 6.00 | 1000 to 3000 nM | –
14 | CCN1C(=O)[C@@H](NC(=O)c2cccc(C(F)(F)F)c2)[C@H](c2cccc(CNC#N)c2)c2cnn(-c3ccccc3)c21 (racemic) [Compound I-29] | 5.52 to 6.00 | 1000 to 3000 nM | –
15 | CCN1C(=O)[C@@H](NC(=O)c2cccc(C(F)(F)F)c2)[C@H](c2ccccc2CN(C)C#N)c2cnn(-c3ccccc3)c21 (racemic) [Compound I-49] | 5.52 to 6.00 | 1000 to 3000 nM | –
16 | CCN1C(=O)[C@@H](NC(=O)c2nccc(C(F)(F)F)n2)[C@H](c2cccc(C(=O)N3CCC[C@@H]3C#N)c2)c2cnn(-c3ccccc3)c21 (mixture of isomers) [Compound I-250] | 5.52 to 6.00 | 1000 to 3000 nM | –

Row | SMILES | pIC50 [1] | IC50 [2] | pIC50 [3]
17 | C=C(CN1CCC1)C(=O)NCc1cccc([C@H]2c3c(C)nn(-c4ccccc4)c3N(CC)C(=O)[C@@H]2NC(=O)c2cccc(C(F)(F)F)c2)c1 [Compound I-374] | 6.00 to 6.70 | 200 to 1000 nM | –
18 | C=C(CN1CCN(C2COC2)CC1)C(=O)NCc1cccc([C@H]2c3cnn(-c4ccccc4)c3N(CC)C(=O)[C@@H]2NC(=O)c2cccc(C(F)(F)F)c2)c1 [Compound I-134] | 6.00 to 6.70 | 1000 to 3000 nM | –
19 | CCN1C(=O)[C@@H](NC(=O)c2cccc(C(F)(F)F)c2)[C@H](c2cccc(CN(C)C#N)c2)c2cnn(-c3ccccc3)c21 (racemic) [Compound I-104] | 5.52 to 6.00 | 1000 to 3000 nM | –
20 | C=C(CN1CCOCC1)C(=O)N[C@@H](C)c1cccc([C@@H]2c3cnn(-c4ccccc4)c3N(CC)C(=O)[C@H]2NC(=O)c2nccc(C(F)(F)F)n2)c1 [Compound I-299] | 5.52 to 6.00 | 1000 to 3000 nM | –
21 | C/C=C(\CN1CCC1)C(=O)Nc1cccc([C@@H]2c3cnn(-c4ccccc4)c3N(CC)C(=O)[C@H]2NC(=O)c2nccc(C(F)(F)F)n2)c1 [Compound I-367] | ≥ 6.70 | 1000 to 3000 nM | –
22 | C=C(C(=O)NCc1cccc([C@@H]2c3cnn(-c4ccccc4)c3N(CC)C(=O)[C@H]2NC(=O)c2csc(C)n2)c1)C(C)N(C)C1COC1 (stereo partly shown) [Compound I-278] | ≥ 6.70 | – | ≥ 6.70
23 | CCN1C(=O)[C@@H](NC(=O)c2cccc(C(F)(F)F)c2)[C@H](c2cccc(CN(C)C/C=C/C(=O)N(C)C)c2)c2cnn(-c3ccccc3)c21 [Compound I-339] | 5.52 to 6.00 | 1000 to 3000 nM | –
24 | C/C=C(\CN1CC2CC(C1)O2)C(=O)Nc1cccc([C@@H]2c3cnn(-c4ccccc4)c3N(CC)C(=O)[C@H]2NC(=O)c2nccc(C(F)(F)F)n2)c1 [Compound I-337, N-((4R,5S)-4-(3-((E)-2-((6-oxa-3-azabicyclo[3.1.1]heptan-3-yl)methyl)but-2-enamido)phenyl)-7-ethyl-6-oxo-1-phenyl-4,5,6,7-tetrahydro-1H-pyrazolo[3,4-b]pyridin-5-yl)-4-(trifluoromethyl)pyrimidine-2-carboxamide] | ≥ 6.70 | 200 to 1000 nM | –
25 | CCN1C(=O)[C@H](NC(=O)c2cccc(C(F)(F)F)c2)[C@@H](c2cccc(N(C)C(=O)C3=CCC3)c2)c2cnn(-c3ccccc3)c21 [Compound I-91] | 5.52 to 6.00 | 1000 to 3000 nM | –
26 | CCN1C(=O)[C@@H](NC(=O)c2cccc(C(F)(F)F)c2)[C@H](c2cccc(CNC(=O)/C=C(\C)C(=O)OC)c2)c2cnn(-c3ccccc3)c21 [Compound I-73] | 5.52 to 6.00 | 1000 to 3000 nM | –
27 | C=C(CN1CCOCC1)C(=O)NCc1cccc([C@@H]2c3cnn(-c4ccccc4)c3N(CC)C(=O)[C@H]2NC(=O)c2ccn(C)n2)c1 (single isomer, unassigned) [Compound I-51] | – | – | 5.52 to 6.00
28 | C=C(CN1CCC12COC2)C(=O)N(C)Cc1cccc([C@@H]2c3cnn(-c4ccccc4)c3N(CC)C(=O)[C@H]2NC(=O)c2ccn(C3CC3)n2)c1 [Compound I-373] | ≥ 6.70 | 200 to 1000 nM | –
29 | C/C=C(/CN1CCN(C2COC2)CC1)C(=O)N(C)c1cccc([C@@H]2c3cnn(-c4ccccc4)c3N(CC)C(=O)[C@H]2NC(=O)c2csc(C(F)(F)F)n2)c1 [Compound I-369] | 5.52 to 6.00 | 1000 to 3000 nM | –
30 | CCN1C(=O)[C@@H](NC(=O)c2cccc(C(F)(F)F)c2)[C@H](c2cccc(CN(C)C#N)c2)c2c(C)nn(-c3ccccc3)c21 (racemic) [Compound I-40] | 5.52 to 6.00 | 1000 to 3000 nM | –
31 | C=C(CN1CCOCC1)C(=O)N(C)Cc1cccc([C@@H]2c3cnn(-c4ccccc4)c3N(CC)C(=O)[C@H]2NC(=O)c2ccn(C(F)(F)F)n2)c1 [Compound I-295] | ≥ 6.70 | 1000 to 3000 nM | –
